According to patent publication US6037357A, “N-benzoyl-α-alkylated azatyrosines as anticancer agents” (Unitech Pharmaceuticals, Inc., priority 1999, dated 2000):
“Also recorded” adds a separate entry of the source.

Key:
[1] = test system: breast cancer cell (BC-M1); experiment: Cytotoxic assay by colorimetric MTT assay (growth inhibition), breast cancer; type: cell-based, human; details: for IC50: Homo sapiens, 72 h, BC-M1, 10000 cells per well, 3 days incubation, mean of 4 experiments
Protocol: (§1) The in-vitro studies for evaluating these α-alkylatedderivatives of azatyrosine were performed and the general procedures are listed as follow:
(§2) Human stomach cancer cell line (SC-M1), and human breast cancer cell line (BC-M1) sampled from inpatients at Tri-service General Hospital in Taipei (Taiwan) were cultured and used in the experiments. All cells from primary culture and subculture were grown in 10% RPMI 1640 supplemented with 100 U/mL penicillin G, 100 μg/mL amphotericin B, and 10% fetal calf serum (FCS) in a 5% CO2 incubator at 37° C.
(§3) The cytotoxicity of these compounds against cultured cancer cells was determined by utilizing in-vitro MTT assay. L-azatyrosine and its α-alkylated derivatives were dissolved in milli-Q water at a concentration of 1 mg/mL and diluted with 10% FCS-RPMI to various concentrations, respectively. Single cell suspension (100 μL) and each compounds (100 μL) were added to 96-well flat-bottom microplate. 10% FCS-RPMI (100 μL) was used as a control group. After 3 days incubation at 37° C. in a 5% CO2 incubator, stock MTT (10 μL of 5 mg/mL for each 100 μL solution in well) solution was added to all wells. After additional 2 h incubation in a 5% CO2 incubator, The mixture was centrifuged (1000 rpm for 5 min) and the supernatant was carefully pipetted out. The residue was mixed well with DMSO (100 μL). The optical density of plates was recorded on a MRX Spectrophotometer (Dynatech, Guernsey, UK) at a wavelength of 550 nm.
(§4) Fractional inhibition was calculated as [1-(optical density of sample/optical density of control)]. The IC50 values for each compound were determined as a parameter for cytotoxicity, which is the concentration of a test compound exerting 50% survival of cancer cells, compared to untreated controls. Each value is the mean of four experiments. A specific example of the in-vitro study is shown Example 8.
(§5) A series of α-alkylated derivatives of L-azatyrosine were studied for their in-vitro effects according to the above procedures. The growth inhibition of L-azatyrosine and its derivatives on human cancer cell lines (BC-M1 and SC-M1) has been shown on Table 1.

[2] = test system: stomach cancer cell (SC-M1); experiment: Cytotoxic assay by colorimetric MTT assay (growth inhibition), stomach cancer; type: cell-based, human; details: for IC50: Homo sapiens, 72 h, SC-M1, 10000 cells per well, 3 days incubation, mean of 4 experiments
Protocol: as §1, §2, §3, §4, §5

[3] = test system: activated c-Ha-ras-transformed NIH3T3 cells; details: cited from earlier work
PC-3 = details: incubation for 7 days; cited from earlier work
[4] = test system: prostate tumorigenic growth; details: cited from earlier work
anticancer activity = details: cited from earlier work
[5] = test system: human prostate cancer cells; details: cited from earlier work
[6] = test system: 7,12-dimethylbenz[a]anthracene or methylnitrosourea-induced carcinogenesis in mice; details: mice harboring a normal c-Ha-ras gene; cited from earlier work
[7] = test system: pappilomas induced by a chemical carcinogen; details: 2 mg/mouse once every two days for 12 days; cited from earlier work
TSU-Prl = details: incubation for 7 days; cited from earlier work
[8] = test system: cells possessing normal ras gene; details: cited from earlier work
DU-145 = details: incubation for 7 days; cited from earlier work

CC(C)CC(Cc1ccc(O)cn1)(NC(=O)c1ccccc1)C(=O)O (racemic) [Compound 8b, N-Benzoyl-α-isobutyl-DL-azatyrosine]
IC50 [1]: 1000 µM
IC50 [2]: 1200 µM

O=C(NC(Cc1ccccc1)(Cc1ccc(O)cn1)C(=O)O)c1ccccc1 (racemic) [Compound 8c, N-benzoyl-α-benzyl-DL-azatyrosine]
IC50 [1]: 600 µM
IC50 [2]: 600 µM

CCOC(=O)C(Cc1ccccc1)(Cc1ccc(O)cn1)NC(=O)c1ccccc1 (racemic) [Compound 9c, Ethyl N-benzoyl-α-benzyl-DL-azatyrosinate]
IC50 [1]: 900 µM
IC50 [2]: 1000 µM

N[C@@H](Cc1ccc(O)cn1)C(=O)O [L-Azatyrosine, L-azatyrosine]
reversion of activated c-Ha-ras-transformed NIH3T3 cells to the apparently normal phenotype [3]: induces permanent reversion
in-vitro growth inhibition, PC-3 (PC-3): greater than 95%
inhibition of prostate tumorigenic growth [4]: inhibit prostate tumorigenic growth
concentrations required for the anticancer activity (anticancer activity): 1 to 2 mM
reversion efficiency on human prostate cancer cells [5]: high reversion efficiency
inhibition of 7,12-dimethylbenz[a]anthracene or methylnitrosourea-induced carcinogenesis [6]: inhibits
block of pappilomas induced by a chemical carcinogen [7]: can block pappilomas
in-vitro growth inhibition, TSU-Prl (TSU-Prl): greater than 95%
effect on the growth of cells possessing normal ras gene [8]: without significantly affecting the growth
in-vitro growth inhibition, DU-145 (DU-145): greater than 95%
IC50 [1]: 2200 µM
IC50 [2]: 1600 µM

C[C@H](NC(=O)C(Cc1ccccc1)(Cc1ccc(O)cn1)NC(=O)c1ccccc1)c1ccccc1 (mixture of isomers) [Compound 10c, N-Benzoyl-α-benzyl-DL-azatyrosyl-(S)-1-phenylethylamide]
cytotoxicity / growth inhibition compared with L-azatyrosine (in words), BC-M1 [1]: higher growth inhibition than that of L-azatyrosine
IC50 [1]: 600 µM
IC50 [2]: 80 µM
cytotoxicity / growth inhibition compared with L-azatyrosine (in words), SC-M1 [2]: higher growth inhibition than that of L-azatyrosine; also recorded: excellent cytotoxicity on SC-M1 compared with L-azatyrosine

CC(Cc1ccc(O)cn1)(NC(=O)c1ccccc1)C(=O)O (racemic) [Compound 8a, N-Benzoyl-α-methyl-DL-azatyrosine]
IC50 [1]: 1300 µM
IC50 [2]: 800 µM

CC(C)CC(Cc1ccc(O)cn1)(NC(=O)c1ccccc1)C(=O)N[C@@H](C)c1ccccc1 (mixture of isomers) [Compound 10b, N-Benzoyl-α-isobutyl-DL-azatyrosyl-(S)-1-phenylethylamide]
cytotoxicity / growth inhibition compared with L-azatyrosine (in words), BC-M1 [1]: higher growth inhibition than that of L-azatyrosine
IC50 [1]: 300 µM
IC50 [2]: 300 µM
cytotoxicity / growth inhibition compared with L-azatyrosine (in words), SC-M1 [2]: higher growth inhibition than that of L-azatyrosine

CCOC(=O)C(Cc1ccc(O)cn1)(CC(C)C)NC(=O)c1ccccc1 (racemic) [Compound 9b, Ethyl N-benzoyl-α-isobutyl-DL-azatyrosinate]
IC50 [1]: 700 µM
IC50 [2]: 600 µM
